Test [1] has as its target T1, Acetylcholinesterase (Homo sapiens, UniProt P22303). The test is described as follows: Inhibition of AChE (unknown origin) by Ellman's method. In general terms: Ellman's reagent forms a yellow product with free thiols.
The target in test [2] is T2, Beta-secretase 1 (Homo sapiens, UniProt P56817). Description: Inhibition of BACE1 (unknown origin) using Rh-EVNLDAEFK-Quencher as substrate incubated for 1 hr by FRET assay.
The target in test [3] is T3, Cholinesterase (Homo sapiens, UniProt P06276). Description: Inhibition of BChE (unknown origin) by Ellman's method.
The species entered for the next test is Homo sapiens. The test is described as follows: Selectivity index, ratio of IC50 for human BuChE to IC50 for human AChE.
Test [4] addresses T1, Acetylcholinesterase. The test is described as follows: Inhibition of human AChE using […] as substrate incubated for 20 mins by DTNB reagent based Ellman's method.
For test [5], the target named is T4, Cholinesterase (Equus caballus, UniProt P81908). Description: Inhibition of equine BuChE.
Test [6] is described as follows: Antioxidant activity assessed as DPPH radical scavenging activity. It counts as functional. For orientation: The DPPH test is a chemical assay of radical scavenging.
The target in test [7] is T3, Cholinesterase. Description: Inhibition of human BuChE using butyrylthiocholine iodide as substrate pre-incubated for 10 mins followed by substrate addition and measured for 15 mins by Ellman's method.
The target in test [8] is T3, Cholinesterase. The test is described as follows: Inhibition of BuChE (unknown origin).
Test [9] has as its target T5, Amine oxidase [flavin-containing] B (Homo sapiens, UniProt P27338).
T5 sequence (P27338 whole entry): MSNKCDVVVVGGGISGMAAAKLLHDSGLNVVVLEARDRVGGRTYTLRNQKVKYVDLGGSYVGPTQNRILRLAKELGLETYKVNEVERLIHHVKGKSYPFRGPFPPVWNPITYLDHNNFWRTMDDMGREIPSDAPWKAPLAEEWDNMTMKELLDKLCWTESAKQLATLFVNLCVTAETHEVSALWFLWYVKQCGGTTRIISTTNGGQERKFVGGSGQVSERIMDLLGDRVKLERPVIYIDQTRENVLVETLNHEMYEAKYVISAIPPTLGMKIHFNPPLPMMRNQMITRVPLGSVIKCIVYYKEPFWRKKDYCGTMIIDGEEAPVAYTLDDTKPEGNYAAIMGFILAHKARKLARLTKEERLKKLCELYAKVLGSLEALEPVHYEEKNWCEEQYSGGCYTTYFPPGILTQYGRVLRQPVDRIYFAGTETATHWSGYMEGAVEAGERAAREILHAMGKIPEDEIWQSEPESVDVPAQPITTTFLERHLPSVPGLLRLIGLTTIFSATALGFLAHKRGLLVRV
Description: Inhibition of MAO-B (unknown origin).

Test [10] concerns the target T1, Acetylcholinesterase. The test is described as follows: Inhibition of AChE (unknown origin).
Test [11] deals with T2, Beta-secretase 1. Description: Inhibition of BACE1 (unknown origin).
The target in test [12] is T1, Acetylcholinesterase. The test is described as follows: Inhibition of human recombinant AChE using acetylthiocholine iodide as substrate preincubated for 15 mins followed by substrate addition measured for 10 mins DTNB reagent based Ellman's method.
Test [13] deals with T4, Cholinesterase. The test is described as follows: Inhibition of equine BChE using BTCh as substrate incubated for 15 mins by Ellmans method.
Test [14] addresses Acetylcholinesterase (Electrophorus electricus, UniProt O42275). Description: Inhibition of electric eel AChE.
Test [15] addresses T2, Beta-secretase 1. Description: Inhibition of BACE1 (unknown origin) by FRET assay.
The target in test [16] is T4, Cholinesterase. The test is described as follows: Inhibition of equine serum BChE using butyrylthiocholine iodide as substrate by DTNB reagent based Ellman's method.

≈ marks a conversion by molar mass, not a printed value.

T2 sequence (P56817 whole entry): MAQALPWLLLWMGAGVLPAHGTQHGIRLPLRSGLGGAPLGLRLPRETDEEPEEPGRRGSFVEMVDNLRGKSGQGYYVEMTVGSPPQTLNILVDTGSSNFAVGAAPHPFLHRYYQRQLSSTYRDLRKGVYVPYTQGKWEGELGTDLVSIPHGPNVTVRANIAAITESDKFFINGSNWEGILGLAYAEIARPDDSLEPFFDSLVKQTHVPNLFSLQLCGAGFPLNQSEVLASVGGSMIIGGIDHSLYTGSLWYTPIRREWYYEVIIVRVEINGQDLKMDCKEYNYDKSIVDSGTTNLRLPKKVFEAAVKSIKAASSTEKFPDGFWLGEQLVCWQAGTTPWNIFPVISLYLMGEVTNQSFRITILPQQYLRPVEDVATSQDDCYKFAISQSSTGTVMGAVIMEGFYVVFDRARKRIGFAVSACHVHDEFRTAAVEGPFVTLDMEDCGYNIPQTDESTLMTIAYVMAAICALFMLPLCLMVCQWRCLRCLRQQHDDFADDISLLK
T1 sequence (P22303 whole entry): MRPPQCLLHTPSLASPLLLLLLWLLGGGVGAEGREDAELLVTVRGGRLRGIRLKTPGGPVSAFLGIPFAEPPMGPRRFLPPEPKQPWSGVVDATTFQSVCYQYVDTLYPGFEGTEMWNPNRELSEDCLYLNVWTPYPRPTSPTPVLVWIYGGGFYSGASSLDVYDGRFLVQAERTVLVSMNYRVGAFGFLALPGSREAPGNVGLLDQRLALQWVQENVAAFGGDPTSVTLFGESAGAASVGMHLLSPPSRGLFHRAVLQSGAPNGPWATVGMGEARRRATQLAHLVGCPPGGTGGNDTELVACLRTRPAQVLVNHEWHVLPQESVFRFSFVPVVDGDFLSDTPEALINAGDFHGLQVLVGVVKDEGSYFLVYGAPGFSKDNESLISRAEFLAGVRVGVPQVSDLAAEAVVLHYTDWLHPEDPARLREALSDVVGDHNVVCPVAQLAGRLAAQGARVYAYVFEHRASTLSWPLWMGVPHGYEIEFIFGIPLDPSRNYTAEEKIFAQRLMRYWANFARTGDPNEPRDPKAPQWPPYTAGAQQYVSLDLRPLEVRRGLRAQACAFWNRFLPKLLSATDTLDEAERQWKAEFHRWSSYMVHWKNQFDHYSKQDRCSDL
T3 sequence (P06276 whole entry): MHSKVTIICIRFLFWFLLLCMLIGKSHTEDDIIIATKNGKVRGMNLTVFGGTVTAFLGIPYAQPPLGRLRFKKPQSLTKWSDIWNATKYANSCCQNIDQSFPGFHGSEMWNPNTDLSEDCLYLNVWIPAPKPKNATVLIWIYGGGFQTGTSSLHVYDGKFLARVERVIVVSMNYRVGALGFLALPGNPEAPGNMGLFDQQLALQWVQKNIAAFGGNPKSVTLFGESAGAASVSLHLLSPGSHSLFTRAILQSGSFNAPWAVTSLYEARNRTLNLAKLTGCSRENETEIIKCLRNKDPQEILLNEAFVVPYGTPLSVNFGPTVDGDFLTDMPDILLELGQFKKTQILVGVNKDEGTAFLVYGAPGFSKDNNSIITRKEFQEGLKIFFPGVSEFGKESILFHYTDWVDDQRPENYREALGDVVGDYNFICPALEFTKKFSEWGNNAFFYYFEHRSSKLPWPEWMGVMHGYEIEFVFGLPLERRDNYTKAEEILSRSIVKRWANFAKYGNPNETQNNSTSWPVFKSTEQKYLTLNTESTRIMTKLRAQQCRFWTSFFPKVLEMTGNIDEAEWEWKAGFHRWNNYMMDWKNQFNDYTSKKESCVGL
T4 sequence (P81908 whole entry): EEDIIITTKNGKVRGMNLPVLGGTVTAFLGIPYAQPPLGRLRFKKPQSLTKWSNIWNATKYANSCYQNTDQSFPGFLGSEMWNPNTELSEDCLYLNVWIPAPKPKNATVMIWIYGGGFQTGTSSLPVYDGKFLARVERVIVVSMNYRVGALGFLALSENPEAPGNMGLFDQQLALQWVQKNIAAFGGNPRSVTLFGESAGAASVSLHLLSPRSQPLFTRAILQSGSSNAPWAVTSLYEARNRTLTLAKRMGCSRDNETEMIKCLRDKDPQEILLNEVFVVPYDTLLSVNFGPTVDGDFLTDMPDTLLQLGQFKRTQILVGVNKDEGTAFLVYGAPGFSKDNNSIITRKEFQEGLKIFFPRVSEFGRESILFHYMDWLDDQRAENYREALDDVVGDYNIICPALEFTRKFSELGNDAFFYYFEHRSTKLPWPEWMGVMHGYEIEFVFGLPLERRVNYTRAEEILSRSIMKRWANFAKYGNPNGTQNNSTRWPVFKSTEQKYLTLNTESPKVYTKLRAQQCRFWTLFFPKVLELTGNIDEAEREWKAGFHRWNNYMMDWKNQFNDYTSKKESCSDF
Sequence of Acetylcholinesterase (Electrophorus electricus, UniProt O42275) (O42275 whole entry): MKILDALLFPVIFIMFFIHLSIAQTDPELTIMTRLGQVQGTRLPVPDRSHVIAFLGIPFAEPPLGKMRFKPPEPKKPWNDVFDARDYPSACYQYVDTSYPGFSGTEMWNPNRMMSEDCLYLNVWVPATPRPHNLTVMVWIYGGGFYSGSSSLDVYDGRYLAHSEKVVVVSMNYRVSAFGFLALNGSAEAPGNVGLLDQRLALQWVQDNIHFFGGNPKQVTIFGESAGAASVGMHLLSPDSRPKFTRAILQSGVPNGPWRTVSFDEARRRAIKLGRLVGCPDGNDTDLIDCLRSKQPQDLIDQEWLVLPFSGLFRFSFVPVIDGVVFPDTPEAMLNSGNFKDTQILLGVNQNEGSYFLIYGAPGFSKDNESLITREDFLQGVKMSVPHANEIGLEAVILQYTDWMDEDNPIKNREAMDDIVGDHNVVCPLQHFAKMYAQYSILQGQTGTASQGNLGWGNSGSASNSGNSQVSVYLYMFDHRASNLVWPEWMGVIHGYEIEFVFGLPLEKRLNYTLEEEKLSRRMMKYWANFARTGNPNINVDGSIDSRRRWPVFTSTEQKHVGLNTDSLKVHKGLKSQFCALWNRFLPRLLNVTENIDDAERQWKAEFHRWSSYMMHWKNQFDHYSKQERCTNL

For orientation: IC50 means the concentration at which inhibition is half-maximal. Molecule `Cc1cc(=O)oc2cc(OCC(=O)N/N=C\c3ccc(C(=O)O)cc3)ccc12` displayed an IC50 at Acetylcholinesterase [1] of 0.802 µM. On to `COc1cc2oc(=O)ccc2cc1O` [ISOSCOPOLETIN], for which the figures for the IC50 against Beta-secretase 1 [2], at Acetylcholinesterase [1] and against Cholinesterase [3] were 146 µM, 174 µM and 110 µM, respectively. As for `Cc1cc(=O)oc2cc(OCc3nnc(-c4ccc(O)c(O)c4)o3)ccc12`, the Ratio IC50 in the test filed under Homo sapiens worked out at 1.55. Further, the half-inhibitory concentration (IC50) against Acetylcholinesterase [4] was found to be 29.6 µM. As for `COc1ccc2ccc(=O)oc2c1` [HERNIARIN], the IC50 against Beta-secretase 1 [2] is 172 µM; against Acetylcholinesterase [1] it was 104 µM; against Cholinesterase [3] it was 119 µM. As to `O=c1ccc2ccc(O)cc2o1` [UMBELLIFERONE], the IC50 was determined as 143 µM against Beta-secretase 1 [2] and 105 µM against Cholinesterase [3]. `COc1cccc2cc(-c3ccc(NC(=O)c4ccc(F)cc4)cc3)c(=O)oc12`: at Cholinesterase [5], the concentration for half-maximal inhibition (IC50) was 0.55 µM. With `O=c1ccc2cc(O)c(O)cc2o1` [ESCULETIN], the IC50 on Acetylcholinesterase [1] was found to be 6.13 µM; at Cholinesterase [3], 8.66 µM. As to `O=c1c(O)c(-c2ccc(O)c(O)c2)oc2cc(O)cc(O)c12` [QUERCETIN], in [6], the IC50 was 3.18 µg/mL (≈ 10.5 µM). Molecule `Cc1cc(=O)oc2cc(OCc3nnc(Cc4cccc5c4OCO5)o3)ccc12` displayed an IC50 on Cholinesterase [7] of 24 µM. On to `O=C1CCOc2ccc(OCCN3CCCCCC3)cc21`, for which the IC50 on Cholinesterase [8] amounted to 13.7 µM; in test [9], 1.11 µM; against Acetylcholinesterase [10] it was 4.88 µM.

Take `COc1cc(Cn2cc(COc3ccc4ccc(=O)oc4c3C(C)=O)nn2)cc(OC)c1`: the IC50 against Acetylcholinesterase [1] is 2.57 µM; against Cholinesterase [3] it was 3.26 µM; against Beta-secretase 1 [11], 10.7 µM. Consider `CC(C)c1cc2cc3ccc(=O)oc3cc2o1`, for which, at Acetylcholinesterase [12], the IC50 is 86.5 µM. As for `COc1cc2cc(-c3ccc(CN(C)Cc4ccccc4)cc3)c(=O)oc2cc1OC`, the IC50 against Cholinesterase [13] came to 48.9 µM. For the molecule `COc1cccc2cc(C(=O)NCc3cnnn3Cc3ccccc3Cl)c(=O)oc12`, the values for the IC50 at Acetylcholinesterase [14] and against Beta-secretase 1 [15] were 15.4 µM and 96.1 µM, respectively.

Take `O=C1O[C@H]([C@@H](O)CO)C(O)=C1O` [ASCORBIC ACID]: the IC50 in [6] was found to be 10.52 µg/mL (≈ 59.7 µM). In the case of `COc1cccc2cc(-c3ccc(NC(=O)c4ccc(CCl)cc4)cc3)c(=O)oc12`, the IC50 on Acetylcholinesterase [10] worked out at 0.091 µM. In turn, `O=c1oc2ccccc2cc1-c1ccc(Br)cc1` returned an IC50 at Acetylcholinesterase [10] of 19.2 µM.

`O=C(O)c1cc2ccc(=O)oc2cc1O`: the IC50 is 0.34 µM at Beta-secretase 1 [2], 145 µM against Acetylcholinesterase [1] and 27.2 µM at Cholinesterase [3].

Regarding `O=c1oc2c(O)cccc2cc1-c1ccccc1`, the IC50 at Cholinesterase [5] was determined as 13.1 µM. On to `Cc1cc(=O)oc2cc(OCc3nnc(-c4cc(O)c(O)c(O)c4)o3)ccc12`, for which the Ratio IC50 in the test filed under Homo sapiens is 1.65. At Acetylcholinesterase [4], this molecule showed an IC50 of 28.7 µM. At Cholinesterase [3], `COc1cc(OC)c2c(=O)c(OCCCCn3cc(CN4C(=O)C(=O)c5ccccc54)nn3)c(-c3ccc(OC)c(OC)c3)oc2c1` registered an IC50 of 11.2 µM. `O=C(NCCCN1CCOCC1)c1cc2ccc(OCc3cn(Cc4cccc(Cl)c4Cl)nn3)cc2oc1=O`: the IC50 at Cholinesterase [16] turned out to be 1.71 µM; against Beta-secretase 1 [11], 21.1 µM. Regarding `COc1cc2ccc(=O)oc2cc1O` [SCOPOLETIN], the IC50 against Beta-secretase 1 [2] came out at 159 µM; against Acetylcholinesterase [1], 154 µM; at Cholinesterase [3], 159 µM.

Take `O=C1OC2=C(O)C(O)=CCC2C=C1c1ccc(O)c(O)c1` (stereo not drawn): it took 3.04 µM to reach half-maximal inhibition against Acetylcholinesterase [10] (IC50). On to `Cc1c(C)c2c(c(C)c1O)CCC(C)(C(=O)O)O2` (stereo not drawn) [TROLOX], for which the IC50 in [6] is 12.54 µg/mL (≈ 50.1 µM).

The values are drawn from ChEMBL document CHEMBL6083186, “Chromenone: An emerging scaffold in anti-Alzheimer drug discovery” (Bioorg Med Chem Lett, 2024).
